What was measured:
[1] = tested on: STZ-treated rats with neuropathy; assay: Coat state score; assay type: in vivo, rat; details: chronic p.o. treatment from day 28, day 42
Experimental: (§1) On the day of diabetic state induction, rats were deprived of food for 6 h (from 8 a.m. to 2 p.m.). A single i.p. injection was applied with 55 mg/kg STZ in the ice-cold citrate buffer (0.1 M pH 4.4). The observed polydipsia, polyuria, reduced thriving with lower body weight, and poor coating appearance indirectly indicated the development of diabetes. On day 28, after 6 h of fasting, blood glucose was measured with an Xpress Statstrip Glucometer (Nova Biomedical Corporation, Waltham, MA, USA) from the tail vein. A cut-off value of blood glucose >13 mmol/l was adopted. […] Controls were once i.p. injected with ice-cold citrate buffer 0.1 M pH 4.4 only.
(§2) Three animals per cage were housed for the experiment 2 (Fig. 3B). […] Body weight (BW), coat score (CS), CPT, R–S, and FT were evaluated on day 28th post-STZ, and after that, rats were distributed into the treatment groups as follows. • C-Veh – Controls, vehiculum treatment (n = 12) • NP-Veh – STZ-treated rats with neuropathy, vehiculum treatment (n = 12) • NP-KB-R7943 – 5 mg - STZ-treated rats, with neuropathy, KB-R7943 5 mg/kg treatment (n = 12) • NP-KB-R7943 – 10 mg – STZ-treated rats, with neuropathy, KB-R7943 10 mg/kg (n = 12) • NP-AMT – 10 mg - STZ-treated rats, with neuropathy, amitriptyline 10 mg/kg (n = 12). […]
Coat state, water consumption, and body weight were evaluated weakly. […] Water consumption was measured per cage. […]

[2] = tested on: STZ-treated rats with neuropathy; assay: 24-hour spontaneous physical activity; assay type: in vivo, rat; details: 10 mg/kg p.o. once daily from day 28, from day 41
Experimental: as §1
as §2, with “3B). Rats were gently manipulated daily before undertaking the actual behavior tests.” for “3B).”

[3] = tested on: STZ-treated rats with neuropathy; assay: Cold plate test; assay type: in vivo, rat; details: 10 mg/kg p.o. once daily, end of the trial
Experimental: as §1, §2
This test was used for allodynia testing. […] Two independent observers recorded the time-to-paw lifting. […]

[4] = tested on: STZ-treated rats with neuropathy; assay: Paw pressure (Randall-Selitto) test; assay type: in vivo, rat; details: 10 mg/kg p.o. once daily, vs. NPveh
Experimental: as §1
as §2, with “3B). Rats were gently manipulated daily before undertaking the actual behavior tests.” for “3B).”

[5] = tested on: STZ-treated rats with neuropathy; assay: Forced swim test (FST); assay type: in vivo, rat; details: 10 mg/kg p.o. once daily from day 28, test on day 41, 5-min test
Experimental: as §1
as §2, with “3B). Rats were gently manipulated daily before undertaking the actual behavior tests.” for “3B).”

[6] = tested on: STZ-treated rats with neuropathy; assay: Mortality and adverse effects during chronic oral treatment; assay type: in vivo; details: p.o. once daily day 28 to 49
Experimental: (§3) Three animals per cage were housed for the experiment 2 (Fig. 3B). Rats were gently manipulated daily before undertaking the actual behavior tests. One week after adaptation, the Randl-Stellito (R–S) test, cold plate test (CPT), and formalin tests (FT) were performed at baseline. After that, the diabetes model was made with 48 rats. Twelve animals served as controls. Body weight (BW), coat score (CS), CPT, R–S, and FT were evaluated on day 28th post-STZ, and after that, rats were distributed into the treatment groups as follows. • C-Veh – Controls, vehiculum treatment (n = 12) • NP-Veh – STZ-treated rats with neuropathy, vehiculum treatment (n = 12) • NP-KB-R7943 – 5 mg - STZ-treated rats, with neuropathy, KB-R7943 5 mg/kg treatment (n = 12) • NP-KB-R7943 – 10 mg – STZ-treated rats, with neuropathy, KB-R7943 10 mg/kg (n = 12) • NP-AMT – 10 mg - STZ-treated rats, with neuropathy, amitriptyline 10 mg/kg (n = 12).
OraPlus was used as a vehiculum for gavage (16 gauge feeding tube 10 ml/kg) in all rats. KB-R7943 in two doses (5 or 10 mg/kg) or amitriptyline 10 mg/kg was applied once daily until day 49. Behavior tests were performed […] after the oral gavage of the corresponding day, in the afternoon, starting from 2 p.m. […] On day 41, an FST was performed, and at 2 p.m., rats were placed individually for 24 h to assess spontaneous physical activity. […]

[7] = tested on: STZ-treated rats with neuropathy; assay: Formalin test (0.5% formalin); assay type: in vivo, rat
Experimental: as §1, §3
OraPlus was used as a vehiculum for gavage (16 gauge feeding tube 10 ml/kg) in all rats. KB-R7943 in two doses (5 or 10 mg/kg) or amitriptyline 10 mg/kg was applied once daily until day 49. Behavior tests were performed […] after the oral gavage of the corresponding day, in the afternoon, starting from 2 p.m. […] On day 41, an FST was performed, and at 2 p.m., rats were placed individually for 24 h to assess spontaneous physical activity. After that, on day 42, the same battery of the tests as on day 28 were reassessed.
The formalin test was performed 1 h after the R–S test to decrease the interaction with the mechanical stimulus from the previous test. For the same reason, the left hind paws were injected. A needle (U-100 Insulin Syringe, Beckton and Dickinson, Dublin, Ireland) was used. A low-dose intraplantar injection of formalin 50 mcl 0.5% was done, and rats were placed in individual transparent cases for observation. Two independent observers measured the time spent licking or biting the injected paw, and the first (0–5 min) and the second post-injection phase (20–30 min) were reported in sec.

CN(C)CCC=C1c2ccccc2CCc2ccccc21 [amitriptyline]
effect on coat score [1]: ameliorated
24-h spontaneous physical activity [2]: 1678.33 ± 282.00 beam breaks
effect on cold allodynia (cold plate test) [3]: demonstrated a reversal effect
effect on mechanical allodynia (R–S test) [4]: partly reversed
immobility time in FST [5]: 137.50 ± 31.94 s
mortality during treatment [6]: No one rat died
effect on formalin test first phase (0–5 min) ([7]; 10 mg/kg p.o. once daily, vs. NP-Veh): attenuated
effect on formalin test second phase (20–30 min) ([7]; amitriptyline 10 mg/kg, KB-R7943 5 and 10 mg/kg p.o. once daily, vs. NPveh, dose-dependent): attenuated

From PMC10958225, “Therapeutic potential of orally applied KB-R7943 in streptozotocin-induced neuropathy in rats” (Heliyon, 2024)
